Laboratory results reported in the supplement of paper PMC9938120.

What was measured:
Assay in all cases: drug sensitivity score (DSS3, normalised partial AUC of % inhibition dose-response) (DSS (score)); higher = more sensitive (stronger inhibition of viability); extreme values may be limits of the assay
Details in all cases: 72 h; library: FO5A; assay format: 2D, 384-well, CellTiter-Glo
FMOC06 = system: FMOC06 (patient-derived mucinous ovarian cancer cells)
Procedure, shortened: (§1)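 Early-passage (under 10) patient-derived ovarian cancer cells were dispensed onto 384-well flat clear-bottom plates pre-plated with compounds at five concentrations spanning a 10,000-fold range, then incubated 72 h at 37 °C, 5% CO2. Viability was read with CellTiter-Glo, and the data were processed in Breeze. The drug sensitivity score is a partial area under the percent-inhibition dose-response curve divided by the log of the upper asymptote, with higher values meaning greater sensitivity.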

FMOC17 = system: FMOC17 (patient-derived low-grade serous ovarian cancer cells)
Procedure, shortened: as §1

FMOC14 = system: FMOC14 (patient-derived high-grade serous ovarian cancer cells)
Procedure, shortened: as §1

FMOC02_1 = system: FMOC02_1 (patient-derived low-grade serous ovarian cancer cells)
Procedure, shortened: as §1

FMOC02_3 = system: FMOC02_3 (patient-derived low-grade serous ovarian cancer cells)
Procedure, shortened: as §1

FMOC22 = system: FMOC22 (patient-derived mucinous ovarian cancer cells)
Procedure, shortened: as §1

FMOC11 = system: FMOC11 (patient-derived high-grade serous ovarian cancer cells)
Procedure, shortened: as §1

FMOC27 = system: FMOC27 (patient-derived low-grade serous ovarian cancer cells)
Procedure, shortened: as §1

FMOC02_2 = system: FMOC02_2 (patient-derived low-grade serous ovarian cancer cells)
Procedure, shortened: as §1

FMOC25_2 = system: FMOC25_2 (patient-derived low-grade serous ovarian cancer cells)
Procedure, shortened: as §1

FMOC09 = system: FMOC09 (patient-derived high-grade serous ovarian cancer cells)
Procedure, shortened: as §1

FMOC24 = system: FMOC24 (patient-derived high-grade serous ovarian cancer cells)
Procedure, shortened: as §1

FMOC03 = system: FMOC03 (patient-derived mucinous ovarian cancer cells)
Procedure, shortened: as §1

FMOC04 = system: FMOC04 (patient-derived high-grade serous ovarian cancer cells)
Procedure, shortened: as §1

FMOC28 = system: FMOC28 (patient-derived low-grade serous ovarian cancer cells)
Procedure, shortened: as §1

| SMILES | drug sensitivity score (FMOC06) | drug sensitivity score (FMOC17) | drug sensitivity score (FMOC14) | drug sensitivity score (FMOC02_1) | drug sensitivity score (FMOC02_3) | drug sensitivity score (FMOC22) | drug sensitivity score (FMOC11) | drug sensitivity score (FMOC27) | drug sensitivity score (FMOC02_2) | drug sensitivity score (FMOC25_2) | drug sensitivity score (FMOC09) | drug sensitivity score (FMOC24) | drug sensitivity score (FMOC03) | drug sensitivity score (FMOC04) | drug sensitivity score (FMOC28) |
| --- | --- | --- | --- | --- | --- | --- | --- | --- | --- | --- | --- | --- | --- | --- | --- |
| O=c1ncn2nc(Sc3ccc(F)cc3F)ccc2c1-c1c(Cl)cccc1Cl [Neflamapimod] | 0.3 | 0 | 0 | 0 | 0 | 0 | 1 | 0.1 | 0 | 0 | 1.1 | 0.05 | 0 | 0 | 1.1 |
| COCCOc1cnc2ccn([C@H](C)c3nnc4c(F)cc(-c5cnn(C)c5)cn34)c(=O)c2c1 [AMG-337] | 0 | 0 | 0 | 0 | 0 | 0 | 0 | 0 | 0 | 0 | 0 | 0 | 0 | 0 | 3.4 |
| CC#CC(=O)N1CCC[C@H]1c1nc(-c2ccc(C(=O)Nc3ccccn3)cc2)c2c(N)nccn12 [Acalabrutinib] | 2.6 | 2.2 | 0 | 0.3 | 0.7 | 0 | 0.2 | 0 | 0 | 0 | 0.8 | 0 | 0 | 0.6 | 0.5 |
| COC(=O)c1ccc([C@H]2c3[nH]c4ccccc4c3C[C@H](C(=O)OC)N2C(=O)CCl)cc1 [RSL3] | 0 | 0 | 0 | 0 | 0 | 0 | 0 | 0 | 0 | 0 | 0 | 0 | 0 | 0 | 0 |
| Cc1cc(Nc2ncnc3ccc(NC4=NC(C)(C)CO4)cc23)ccc1Oc1ccn2ncnc2c1 [Tucatinib] | 0 | 0 | 0 | 0 | 0 | 0 | 0 | 0 | 0.1 | 0.5 | 0 | 0 | 0 | 0 | 1 |
| CC(C)Oc1ccc(-c2nn([C@@H](C)c3oc4ccc(F)cc4c(=O)c3-c3cccc(F)c3)c3ncnc(N)c23)cc1F [TGR-1202] | 0.3 | 3.5 | 1.7 | 1.6 | 2 | 0 | 0 | 0.1 | 1.1 | 0.1 | 0 | 0.2 | 0 | 0.05 | 4.6 |
| COCCNCc1ccc(-c2cc3nccc(Oc4ccc(NC(=O)C5(C(=O)Nc6ccc(F)cc6)CC5)cc4F)c3s2)nc1 [Sitravatinib] | 1.6 | 2.1 | 1.2 | 2.1 | 2.5 | 0.4 | 1.1 | 2.5 | 1.1 | 2.2 | 1.4 | 5.8 | 0.3 | 0.45 | 1.5 |
| COCCNCc1ccc(-c2cc3nccc(Oc4ccc(NC(=S)NC(=O)Cc5ccc(F)cc5)cc4F)c3s2)nc1 [Glesatinib] | 0 | 0 | 0.2 | 0 | 0 | 0 | 0 | 0 | 0 | 0 | 0 | 0.6 | 0 | 0 | 2.9 |
| CN1CCC(COc2cnc(-c3cccc(Cn4nc(-c5cccc(C#N)c5)ccc4=O)c3)nc2)CC1 [Tepotinib] | 0 | 0.5 | 0 | 0.3 | 3.7 | 0 | 0 | 0 | 1.6 | 2.3 | 0 | 1.9 | 0.2 | 0.75 | 3.4 |
| C=CC(=O)Nc1cccc(Oc2nc(Nc3ccc(N4CCN(C)CC4)cc3)nc3ccsc23)c1 [Olmutinib] | 0.2 | 2.6 | 0 | 2.3 | 2.3 | 0 | 0.4 | 2.4 | 2.1 | 1.5 | 3.5 | 0 | 0.8 | 0.05 | 1.7 |
| CCOCc1nc2c(N)nc3ccccc3c2n1CC(C)(C)O [Resiquimod] | 0.6 | 0 | 0 | 0 | 0 | 0 | 0 | 0 | 0 | 0 | 0.2 | 1.5 | 0 | 0 | 0 |
| O=C(CCNC(=O)c1ccc(OC(F)(F)F)cc1)N[C@@H]1CCCc2ccccc21 [ML390] | 0.3 | 2 | 0 | 5.3 | 4.2 | 4.8 | 3.6 | 3.4 | 3 | 6 | 0 | 0.8 | 4.6 | 2.9 | 2.2 |
| CN1C(=O)N[C@H](Cc2c[nH]c3c(Cl)cccc23)C1=O [Necrostatin 2] | 0 | 0.7 | 0 | 0 | 0 | 0 | 0 | 0 | 0 | 0.3 | 0 | 0 | 0 | 0 | 2.5 |
| O=C(Nc1ccc(OC(F)(F)Cl)cc1)c1cnc(N2CC[C@@H](O)C2)c(-c2cc[nH]n2)c1 [Asciminib] | 1 | 0 | 0 | 0 | 0 | 0 | 0 | 0 | 1 | 0.1 | 0 | 0.9 | 0 | 0 | 0 |
| CNC(=O)c1ccc(-c2cnc3ncc(Cc4ccc5ncccc5c4)n3n2)cc1F [Capmatinib] | 0 | 0 | 0.1 | 0 | 0 | 0 | 0 | 0.5 | 0 | 0 | 0 | 0 | 0 | 0 | 0 |
| CC[C@@](C)(Nc1ccnc(-c2c[nH]c3ncccc23)n1)C(=O)NCC(F)(F)F [Decernotinib] | 2.6 | 0 | 0 | 3.3 | 0.4 | 0 | 0 | 0 | 1.7 | 0 | 0 | 0 | 0 | 0 | 0 |
| CCOC(=O)C1=CCCC[C@H]1S(=O)(=O)Nc1ccc(F)cc1Cl [Resatorvid] | 0.1 | 0 | 0 | 0 | 0 | 0 | 0 | 0 | 0 | 0 | 0 | 0 | 0 | 0 | 0 |
| C[C@H]1C[C@@H](n2c(Nc3ccc(OC(F)(F)F)cc3)nc3cc(CCC(=O)O)ccc32)CC(C)(C)C1 | 0 | 0 | 0 | 0 | 0.3 | 1.1 | 0.6 | 0 | 0 | 0 | 0 | 4.1 | 0 | 0 | 0 |
| COc1cc(C)[nH]c(=O)c1CNC(=O)c1c(C)n([C@H](C)C2CCOCC2)c2ccccc12 [CPI-360] | 0 | 0 | 0 | 0 | 0 | 0 | 0 | 0 | 0.1 | 0 | 0 | 0 | 0 | 0.05 | 3.4 |
| O=C(Nc1cnn2ccc(N3CCC[C@@H]3c3cc(F)ccc3F)nc12)N1CC[C@H](O)C1 [Larotrectinib] | 0 | 0 | 0 | 0 | 0 | 0 | 0 | 0 | 0 | 0 | 0 | 0 | 0 | 0 | 0 |
| CC(O)c1cc(C(=O)N[C@@H](C)Cn2ccc(-c3ccc(C#N)c(Cl)c3)n2)n[nH]1 (stereo not given in full) [ODM-201] | 0.7 | 0 | 0 | 0 | 0 | 0 | 0 | 0 | 0 | 0.5 | 0.9 | 0 | 0.4 | 0 | 0 |
| Cn1cc(-c2ccc(F)c(C(F)(F)F)c2)nc1C1CCN(c2ncnc3[nH]ncc23)CC1 | 0 | 0.6 | 0 | 3.1 | 5.4 | 0 | 0 | 0.1 | 3.9 | 5.6 | 0 | 0 | 0 | 0 | 3.8 |
| COc1cc2ncnc(Nc3cccc(Cl)c3F)c2cc1OC(=O)N1CCN(C)C[C@H]1C [AZD3759] | 0.2 | 7 | 0.5 | 6.4 | 5.9 | 0 | 3.3 | 2.8 | 5.4 | 4.2 | 2.8 | 0 | 4.8 | 0.25 | 5 |
| CCCN(CCC)C(=O)C1=Cc2ccc(-c3ccc(C(=O)N4CCCC4)cc3)cc2N=C(N)C1 [Motolimod] | 0.3 | 0 | 0 | 0 | 1.6 | 0 | 0 | 0.4 | 0 | 0.1 | 0 | 0 | 0 | 0 | 2.5 |
